Values quoted from earlier work, collected in PubChem BioAssay AID1259409 (Chemical Carcinogenesis Research Information System (CCRIS), 2018).
Where “and” joins values, the source holds several entries; their conditions need not be identical. Equal entries are not always repeated.

System: rodent chemically induced tumor inhibition, incidence and multiplicity
Assay: CCRIS tumor inhibitor studies
Details: Species: RAT

Structure (SMILES): COc1ccc2c(c1)c(CC(=O)O)c(C)n2C(=O)c1ccc(Cl)cc1
- tumour outcome (control, treated, inhibition, significance) (Carcinogen: DIETHYLNITROSAMINE, 55-18-5, N-METHYL-N-NITROSOUREA, 684-93-5, N-BUTYL-N-(4-HYDROXYBUTYL)NITROSAMINE, 3817-11-6, 1,2-DIM, Carcinogen: DIETHYLNITROSAMINE, 55-18-5, N-METHYL-N-NITROSOUREA, 684-93-5, N-BUTYL-N-(4-HYDROXYBUTYL)NITROSAMINE, 3817-11-6, 1,2-DIM, Dose [Inhibitor]: 0, 20 PPM IN DRINKING WATER FOR 23 WK BEGINNING 1 WK POST CARCINOGEN TREATMENT (STUDY DURATION: 28 WK), Route [Inhibitor]: ORAL, Strain/Sex: F344/MALE, Target Tissue: Type of Lesion: LARGE INTESTINE: ADENOCARCINOMA, Dose [Carcinogen]: 100 MG/KG BW DEN ONCE, 20 MG/KG BW MNU ONCE ON DAYS 6,9, AND 12, 0.05% BBN IN DRINKING WATER FOR FIRST TWO WK, 40 MG/KG, Dose [Carcinogen]: 100 MG/KG BW DEN ONCE, 20 MG/KG BW MNU ONCE ON DAYS 6,9, AND 12, 0.05% BBN IN DRINKING WATER FOR FIRST TWO WK, 40 MG/KG, Promoter: NONE USED): 2/20 (10%), 0/19 (0%), 100%, not significant
- tumour outcome (control, treated, inhibition, significance) (Carcinogen: DIETHYLNITROSAMINE, 55-18-5, N-METHYL-N-NITROSOUREA, 684-93-5, N-BUTYL-N-(4-HYDROXYBUTYL)NITROSAMINE, 3817-11-6, 1,2-DIM, Carcinogen: DIETHYLNITROSAMINE, 55-18-5, N-METHYL-N-NITROSOUREA, 684-93-5, N-BUTYL-N-(4-HYDROXYBUTYL)NITROSAMINE, 3817-11-6, 1,2-DIM, Dose [Inhibitor]: 0, 20 PPM IN DRINKING WATER FOR 23 WK BEGINNING 1 WK POST CARCINOGEN TREATMENT (STUDY DURATION: 28 WK), Route [Inhibitor]: ORAL, Strain/Sex: F344/MALE, Target Tissue: Type of Lesion: LARGE INTESTINE: ADENOMA, Dose [Carcinogen]: 100 MG/KG BW DEN ONCE, 20 MG/KG BW MNU ONCE ON DAYS 6,9, AND 12, 0.05% BBN IN DRINKING WATER FOR FIRST TWO WK, 40 MG/KG, Dose [Carcinogen]: 100 MG/KG BW DEN ONCE, 20 MG/KG BW MNU ONCE ON DAYS 6,9, AND 12, 0.05% BBN IN DRINKING WATER FOR FIRST TWO WK, 40 MG/KG, Promoter: NONE USED): 3/20 (15%), 0/19 (0%), 100%, not significant
- tumour outcome (control, treated, inhibition, significance) (Carcinogen: DIETHYLNITROSAMINE, 55-18-5, N-METHYL-N-NITROSOUREA, 684-93-5, N-BUTYL-N-(4-HYDROXYBUTYL)NITROSAMINE, 3817-11-6, 1,2-DIM, Carcinogen: DIETHYLNITROSAMINE, 55-18-5, N-METHYL-N-NITROSOUREA, 684-93-5, N-BUTYL-N-(4-HYDROXYBUTYL)NITROSAMINE, 3817-11-6, 1,2-DIM, Dose [Inhibitor]: 0, 20 PPM IN DRINKING WATER FOR 23 WK BEGINNING 1 WK POST CARCINOGEN TREATMENT (STUDY DURATION: 28 WK), Route [Inhibitor]: ORAL, Strain/Sex: F344/MALE, Target Tissue: Type of Lesion: LIVER: HEPATOCELLULAR ADENOMA, HYPERPLASTIC NODULE, Dose [Carcinogen]: 100 MG/KG BW DEN ONCE, 20 MG/KG BW MNU ONCE ON DAYS 6,9, AND 12, 0.05% BBN IN DRINKING WATER FOR FIRST TWO WK, 40 MG/KG, Dose [Carcinogen]: 100 MG/KG BW DEN ONCE, 20 MG/KG BW MNU ONCE ON DAYS 6,9, AND 12, 0.05% BBN IN DRINKING WATER FOR FIRST TWO WK, 40 MG/KG, Promoter: NONE USED): 2/20 (10%), 7/19 (37%), -270%, not significant
- outcome (Carcinogen: DIETHYLNITROSAMINE, 55-18-5, N-METHYL-N-NITROSOUREA, 684-93-5, N-BUTYL-N-(4-HYDROXYBUTYL)NITROSAMINE, 3817-11-6, 1,2-DIM, Carcinogen: DIETHYLNITROSAMINE, 55-18-5, N-METHYL-N-NITROSOUREA, 684-93-5, N-BUTYL-N-(4-HYDROXYBUTYL)NITROSAMINE, 3817-11-6, 1,2-DIM, Dose [Inhibitor]: 0, 20 PPM IN DRINKING WATER FOR 23 WK BEGINNING 1 WK POST CARCINOGEN TREATMENT (STUDY DURATION: 28 WK), Route [Inhibitor]: ORAL, Strain/Sex: F344/MALE, Target Tissue: Type of Lesion: LIVER: HEPATOCELLULAR ADENOMA, Dose [Carcinogen]: 100 MG/KG BW DEN ONCE, 20 MG/KG BW MNU ONCE ON DAYS 6,9, AND 12, 0.05% BBN IN DRINKING WATER FOR FIRST TWO WK, 40 MG/KG, Dose [Carcinogen]: 100 MG/KG BW DEN ONCE, 20 MG/KG BW MNU ONCE ON DAYS 6,9, AND 12, 0.05% BBN IN DRINKING WATER FOR FIRST TWO WK, 40 MG/KG, Promoter: NONE): 0/20 (0%), 0/19 (0%), 0%, not significant
- tumour outcome (control, treated, inhibition, significance) (Carcinogen: DIETHYLNITROSAMINE, 55-18-5, N-METHYL-N-NITROSOUREA, 684-93-5, N-BUTYL-N-(4-HYDROXYBUTYL)NITROSAMINE, 3817-11-6, 1,2-DIM, Carcinogen: DIETHYLNITROSAMINE, 55-18-5, N-METHYL-N-NITROSOUREA, 684-93-5, N-BUTYL-N-(4-HYDROXYBUTYL)NITROSAMINE, 3817-11-6, 1,2-DIM, Dose [Inhibitor]: 0, 20 PPM IN DRINKING WATER FOR 23 WK BEGINNING 1 WK POST CARCINOGEN TREATMENT (STUDY DURATION: 28 WK), Route [Inhibitor]: ORAL, Strain/Sex: F344/MALE, Target Tissue: Type of Lesion: LUNG: ADENOCARCINOMA, Dose [Carcinogen]: 100 MG/KG BW DEN ONCE, 20 MG/KG BW MNU ONCE ON DAYS 6,9, AND 12, 0.05% BBN IN DRINKING WATER FOR FIRST TWO WK, 40 MG/KG, Dose [Carcinogen]: 100 MG/KG BW DEN ONCE, 20 MG/KG BW MNU ONCE ON DAYS 6,9, AND 12, 0.05% BBN IN DRINKING WATER FOR FIRST TWO WK, 40 MG/KG, Promoter: NONE UESD): 1/20 (5%), 0/19 (0%), 100%, not significant
- tumour outcome (control, treated, inhibition, significance) (Carcinogen: DIETHYLNITROSAMINE, 55-18-5, N-METHYL-N-NITROSOUREA, 684-93-5, N-BUTYL-N-(4-HYDROXYBUTYL)NITROSAMINE, 3817-11-6, 1,2-DIM, Carcinogen: DIETHYLNITROSAMINE, 55-18-5, N-METHYL-N-NITROSOUREA, 684-93-5, N-BUTYL-N-(4-HYDROXYBUTYL)NITROSAMINE, 3817-11-6, 1,2-DIM, Dose [Inhibitor]: 0, 20 PPM IN DRINKING WATER FOR 23 WK BEGINNING 1 WK POST CARCINOGEN TREATMENT (STUDY DURATION: 28 WK), Route [Inhibitor]: ORAL, Strain/Sex: F344/MALE, Target Tissue: Type of Lesion: LUNG: ADENOMA, Dose [Carcinogen]: 100 MG/KG BW DEN ONCE, 20 MG/KG BW MNU ONCE ON DAYS 6,9, AND 12, 0.05% BBN IN DRINKING WATER FOR FIRST TWO WK, 40 MG/KG, Dose [Carcinogen]: 100 MG/KG BW DEN ONCE, 20 MG/KG BW MNU ONCE ON DAYS 6,9, AND 12, 0.05% BBN IN DRINKING WATER FOR FIRST TWO WK, 40 MG/KG, Promoter: NONE USED): 8/20 (40%), 2/19 (11%), 73%, p<0.05
- tumour outcome (control, treated, inhibition, significance) (Carcinogen: DIETHYLNITROSAMINE, 55-18-5, N-METHYL-N-NITROSOUREA, 684-93-5, N-BUTYL-N-(4-HYDROXYBUTYL)NITROSAMINE, 3817-11-6, 1,2-DIM, Carcinogen: DIETHYLNITROSAMINE, 55-18-5, N-METHYL-N-NITROSOUREA, 684-93-5, N-BUTYL-N-(4-HYDROXYBUTYL)NITROSAMINE, 3817-11-6, 1,2-DIM, Dose [Inhibitor]: 0, 20 PPM IN DRINKING WATER FOR 23 WK BEGINNING 1 WK POST CARCINOGEN TREATMENT (STUDY DURATION: 28 WK), Route [Inhibitor]: ORAL, Strain/Sex: F344/MALE, Target Tissue: Type of Lesion: THYROID: FOLLICULAR ADENOMA, Dose [Carcinogen]: 100 MG/KG BW DEN ONCE, 20 MG/KG BW MNU ONCE ON DAYS 6,9, AND 12, 0.05% BBN IN DRINKING WATER FOR FIRST TWO WK, 40 MG/KG, Dose [Carcinogen]: 100 MG/KG BW DEN ONCE, 20 MG/KG BW MNU ONCE ON DAYS 6,9, AND 12, 0.05% BBN IN DRINKING WATER FOR FIRST TWO WK, 40 MG/KG, Promoter: NONE USED): 6/20 (30%), 2/19 (11%), 63%, not significant and 1/20 (5%), 1/19 (5%), 0%, not significant
- tumour outcome (control, treated, inhibition, significance) (Carcinogen: DIETHYLNITROSAMINE, 55-18-5, N-METHYL-N-NITROSOUREA;684-93-5, N-BUTYL-N-(4-HYDROXYBUTYL)NITROSAMINE, 3817-11-6, 1,2-DIME, Carcinogen: DIETHYLNITROSAMINE, 55-18-5, N-METHYL-N-NITROSOUREA;684-93-5, N-BUTYL-N-(4-HYDROXYBUTYL)NITROSAMINE, 3817-11-6, 1,2-DIME, Dose [Inhibitor]: 0, 20 PPM IN DRINKING WATER FOR 23 WK BEGINNING 1 WK POST CARCINOGEN TREATMENT (STUDY DURATION: 28 WK), Route [Inhibitor]: ORAL, Strain/Sex: F344/MALE, Target Tissue: Type of Lesion: SMALL INTESTINE: ADENOMA, Dose [Carcinogen]: 100 MG/KG BW DEN ONCE, 20 MG/KG BW MNU ONCE ON DAYS 6,9, AND 12, 0.05% BBN IN DRINKING WATER FOR FIRST TWO WK, 40 MG/KG, Dose [Carcinogen]: 100 MG/KG BW DEN ONCE, 20 MG/KG BW MNU ONCE ON DAYS 6,9, AND 12, 0.05% BBN IN DRINKING WATER FOR FIRST TWO WK, 40 MG/KG, Promoter: NONE USED): 5/20 (25%), 0/19 (0%), 100%, p<0.05
- tumour outcome (control, treated, inhibition, significance) (Carcinogen: DIETHYLNITROSAMINE, 55-18-5, N-METHYL-N-NITROSOUREA, 684-93-5, N-METHYL-N-(4-HYDROXYBUTYL)NITROSAMINE, 3817-11-6, 1,2-DI, Carcinogen: DIETHYLNITROSAMINE, 55-18-5, N-METHYL-N-NITROSOUREA, 684-93-5, N-METHYL-N-(4-HYDROXYBUTYL)NITROSAMINE, 3817-11-6, 1,2-DI, Dose [Inhibitor]: 0, 20 PPM IN DRINKING WATER FOR 23 WK BEGINNING 1 WK POST CARCINOGEN TREATMENT (STUDY DURATION: 28 WK), Route [Inhibitor]: ORAL, Strain/Sex: F344/MALE, Target Tissue: Type of Lesion: SMALL INTESTINE: ADENOCARCINOMA, Dose [Carcinogen]: 100 MG/KG BW DEN ONCE, 20 MG/KG BW MNU ONCE ON DAYS 6,9, AND 12, 0.05% BBN IN DRINKING WATER FOR FIRST TWO WK, 40 MG/KG, Dose [Carcinogen]: 100 MG/KG BW DEN ONCE, 20 MG/KG BW MNU ONCE ON DAYS 6,9, AND 12, 0.05% BBN IN DRINKING WATER FOR FIRST TWO WK, 40 MG/KG, Promoter: NONE USED): 2/20 (10%), 0/19 (0%), 100%, not significant
- tumour outcome (control, treated, inhibition, significance) (Carcinogen: METHYLAZOXYMETHANOL, 590-96-5, Dose [Inhibitor]: 7.5 MG/KG BW DAILY FOR 3 WK STARTING 27 WK AFTER THE START OF CARCINOGEN TREATMENT (STUDY DURATION: 30 WK), Route [Inhibitor]: INTRARECTAL, Strain/Sex: DONRYU/MALE, Target Tissue: Type of Lesion: LARGE INTESTINE: ADENOCARCINOMA, Dose [Carcinogen]: 20 MG/KG BW 1/WK FOR 6 WK, Promoter: NONE USED): 19/23 (83%), 15/30 (50%), 40%, p<0.05
